Data set [1] deals with T1, recombinant HIV-1 protease (Human immunodeficiency virus type 1 group M subtype B, UniProt P04585).
T1 construct: recombinant HIV-1 protease; purchased Bachem Bioscience
Kind of data set: Fluorometric (FRET) enzymatic assay for the inhibition constant (Ki) against the HIV protease. The format is biochemical.

Data set [2] is described as follows: Cytotoxicity (MTT assay / trypan blue exclusion test). The settings on record: 7 or 10 days, 37° C., measure (IC50/CC50) not stated. Format: cell-based. Here is the method: Two assays were performed to evaluate the potentiel toxicity of the compounds in infected cells:
1) Briefly, cells were grown in 96-well microtiter plates at 37° C. in complete culture medium in the presence of the compound to test. Control cells grown in the absence of the compound received the same amount of solvent used to dissolve the inhibitor (in this case, dimethylsulfoxide at a final concentration of 0.1 to 0.3%). After 7 or 10 days, MTT was added to the cultures for 4 hours at 37° C. as described in the literature (Schwartz et al., AIDS Res. Hum. Retrov. 4: 441-448, 1988; Mosmaun, J. Immunol. Meth., 65: 55-63, 1983) and the changes in absorbance associated with metabolism of MTT by viable cells was monitored with an ELISA microplate reader at a test wavelength of 540 nm.
2) The cells were grown as described above in 24-well microplates or 25-cm tissue culture flasks in the presence or absence of the tested compounds, and the cell viability after 7 or 10 days was determined by the trypan blue exclusion test, using a hemacytometer and a microscope at 100× magnification.
For orientation: Tetrazolium assays rely on reduction of a dye to a coloured formazan, in cell work by metabolically active cells.

Setting [3] is: Table 1, benzylated D-mannitol derivatives, pH 4.7, 30° C., substrate 10 μM, protease 18.3 nM.

pKi: −log10 of the molar value. Read-outs that look alike come from different tables or passages of the source. Some results are limits rather than exact numbers.

By pKi is commonly meant −log10 of the Ki, conventionally taken in molar units. Broadly, the CC50 is the concentration giving 50% cytotoxicity. In the case of `O[C@@H]([C@H](O)[C@@H](COCc1ccccc1)OCc1ccccc1)[C@@H](COCc1ccccc1)OCc1ccccc1` [Compound 1, 1,2,5,6-tetra-O-benzyl-D-mannitol], the negative logarithm of the Ki (pKi) in data set [1] was 5.70. In data set [2], this compound registered a cytotoxic concentration (CC50) of 15 µM. `O=[N+]([O-])c1ccc(CO[C@H](COCc2ccccc2)[C@@H](O)[C@H](O)[C@@H](COCc2ccccc2)OCc2ccccc2)cc1` [Compound 61]: the pKi in data set [1] (setting [3]) was 4.64. For `O[C@@H]([C@H](O)[C@@H](COCc1ccccc1)OCc1ccc(OCc2ccccc2)cc1)[C@@H](COCc1ccccc1)OCc1ccc(OCc2ccccc2)cc1` [Compound 6, 1,6-di-O-benzyl-2,5-di-O-(4-benzyloxybenzyl)-D-mannitol], the pKi in data set [1] (setting [3]) was greater than 6.00.

With `Oc1cccc(CO[C@H](COCc2ccccc2)[C@@H](O)[C@H](O)[C@@H](COCc2ccccc2)OCc2cccc(O)c2)c1` [Compound 3, 1,6-di-O-benzyl-2,5-di-O-(3-hydroxybenzyl)-D-mannitol], in data set [1] (setting [3]), the pKi was 5.22.

As to `O[C@@H]([C@H](O)[C@@H](COCc1ccc(F)cc1)OCc1ccccc1)[C@@H](COCc1ccc(F)cc1)OCc1ccccc1` [Compound 31, 1,6-di-O-(4-fluorobenzyl)-2,5-di-O-benzyl-D-mannitol], the pKi in data set [1] (setting [3]) is 5.60. In the case of `C=CCOC[C@@H](OCC=C)[C@@H](O)[C@H](O)[C@@H](COCC=C)OCC=C` [Compound 78, 1,2,5,6-tetra-O-allyl-D-mannitol], in data set [1] (Table 2, tetra-substituted D-mannitol derivatives, pH 4.7, 30° C., substrate 10 μM, protease 18.3 nM), the pKi was 3.72.

(Values after patent US6313177A, “D-mannitol derivatives as HIV aspartyl protease inhibitors” (Pharmacor Inc., priority 1999, dated 2001).)
